The nature of data set [1]: Ester metabolism stability test: metabolite identification by LC-MS. The text has this:
The metabolites were identified using LC (LC-Nexera X2 manufactured by Shimadzu Corp.)-MS (API4000 manufactured by AB Sciex Pte Ltd.).

Data set [2] concerns human plasma. In words: Ester metabolism stability test: stability in human plasma. The class given is in vitro ADME. The note with it: 37° C., 20 minutes. The procedure: 198 μL of human plasma (manufactured by Cosmo Bio Inc.) was added to 2 μL of a DMSO solution containing a 100 μmol/L test substance, and the mixture was incubated at 37° C. for 20 minutes. After the incubation, the metabolic reaction was terminated by the addition of 600 μL of acetonitrile.

Data set [3] can be described thus: Ester metabolism stability test: stability in human liver. The note with it: 37° C., 20 minutes, with NADPH. It counts as in vitro ADME. The procedure: A reaction solution containing 5 μL of human liver S9 (manufactured by Sekisui XenoTech, LLC, 20 mg/mL) mixed with 20 μL of 500 mmol/L Kpi (pH 7.4), 40 μL of a 5 mmol/L aqueous solution of NADPH (manufactured by Oriental Yeast Co., Ltd.), and 133 μL of ion-exchange water was added to 2 μL of a DMSO solution containing a 100 μmol/L test substance, and the mixture was incubated at 37° C. for 20 minutes. After the incubation, the metabolic reaction was terminated by the addition of 600 μL of acetonitrile.

The subject of data set [4] is male cynomolgus monkey. In words: Cynomolgus monkey aPTT evaluation test. The class given is in vivo. The procedure: The compound of Example 7 was suspended in a 0.5% aqueous methylcellulose solution, and this suspension was orally administered at a dose of 10 mg/5 mL/kg or 30 mg/5 mL/kg to a male cynomolgus monkey fasted for 16 hours. Blood collection for aPTT evaluation was carried out before administration and 0.5, 1, 2, 4, 6, and 24 hours after administration. 0.9 mL of blood was collected using a syringe packed with 100 μL of 3.2% sodium citrate, transferred to a centrifugal tube cooled in ice, and centrifuged at 2100 g at 4° C. for 10 minutes to prepare plasma. After incubation at 37° C. for 6 minutes, an STA reagent Cephascreen (for aPTT assay; manufactured by Roche Diagnostics K.K.) was added in an amount equal to the amount of the plasma, and the mixture was further incubated for 4 minutes. STA calcium chloride (manufactured by Roche Diagnostics K.K.) was added in an amount equal to the amount of the plasma, and the time required for coagulation was measured. Blood collection for the measurement of the compound concentration was carried out 0.5, 1, 2, 4, 6, and 24 hours after administration. 1 mL of blood was collected using a syringe packed with 10 μL of Novo-Heparin Injection, transferred to a centrifugal tube cooled in ice, and centrifuged at 2100 g at 4° C. for 10 minutes to prepare plasma. 200 μL of the prepared plasma was added to a tube containing 600 μL of acetonitrile and mixed for approximately 10 seconds using a vortex mixer. Then, the concentration of the compound of Reference Example 2-6 (a value based on the free form) was measured.

[5] abbreviates: metabolites identified using LC-MS.
[6] abbreviates: oral 10 mg/kg, 0 hr (before administration).
Where [7] appears, read: oral 30 mg/kg, 0 hr (before administration).

Where only a bound is given, the exact number is not on record here.

On to `CC1(C)OC(=O)c2cc3cc(NC(=O)[C@@H]4[C@H](C5CCCCC5)CCN4C(=O)[C@H]4CC[C@H]([C@H](N)CF)CC4)ccc3n21.Cl` [Example 1, (2S,3S)-1-({trans-4-[(1S)-1-Amino-2-fluoroethyl]cyclohexyl}carbonyl)-N-(3,3-dimethyl-1-oxo-1H-[1,3]oxazolo[3,4-a]indol-7-yl)-3-cyclohexylpyrrolidine-2-carboxamide hydrochloride], for which, in data set [1] (setting [5]), the “Metabolite formed (conversion by metabolism)” value (“Metabolite formed” below) is reported as “converted to the compound of Reference Example 2-6”. Further, the “Residual rate (%) Human plasma” value in data set [2] worked out at 29%. Further, in data set [3], the “Residual rate (%) Human liver S9” value is 87%.

On to `Cl.N[C@H](CF)[C@H]1CC[C@H](C(=O)N2CC[C@@H](C3CCCCC3)[C@H]2C(=O)Nc2ccc3c(c2)cc2n3C(CF)(CF)OC2=O)CC1` [Example 6, (3S)-1-({trans-4-[(1S)-1-amino-2-fluoroethyl]cyclohexyl}carbonyl)-N-[3,3-bis(fluoromethyl)-1-oxo-1H-[1,3]oxazolo[3,4-a]indol-7-yl]-3-cyclohexyl-L-prolinamide hydrochloride], for which the “Metabolite formed” value in data set [1] (setting [5]) is on record as “converted to the compound of Reference Example 2-6”. For the same compound, the “Residual rate (%) Human plasma” value in data set [2] came to 7.9%. The “Residual rate (%) Human liver S9” value in data set [3] amounted to 67%.

As for `Cl.N[C@H](CF)[C@H]1CC[C@H](C(=O)N2CC[C@@H](C3CCCCC3)[C@H]2C(=O)Nc2ccc3c(c2)cc2n3C3(CCC3)OC2=O)CC1` [Example 7, (3S)-1-({trans-4-[(1S)-1-amino-2-fluoroethyl]cyclohexyl}carbonyl)-3-cyclohexyl-N-(1′-oxo-1′H-spiro[cyclobutane-1,3′-[1,3]oxazolo[3,4-a]indol]-7′-yl)-L-prolinamide hydrochloride], the “aPTT” value came out at 23.8 ± 2.2 s in data set [4] (setting [6]); 26.9 ± 3.3 s in data set [4] (oral 10 mg/kg, 0.5 hr); 30.5 ± 3.0 s in data set [4] (oral 10 mg/kg, 1 hr); 36.5 ± 4.1 s in data set [4] (oral 10 mg/kg, 2 hr); 38.5 ± 3.5 s in data set [4] (oral 10 mg/kg, 4 hr); 37.5 ± 4.5 s in data set [4] (oral 10 mg/kg, 6 hr). The “aPTT” value in data set [4] (oral 10 mg/kg, 24 hr) worked out at 26.1 ± 3.2 s; in data set [4] (setting [7]) it was 23.9 ± 1.6 s; in data set [4] (oral 30 mg/kg, 0.5 hr), 27.6 ± 3.2 s; in data set [4] (oral 30 mg/kg, 1 hr), 32.8 ± 2.8 s; in data set [4] (oral 30 mg/kg, 2 hr), 36.9 ± 0.8 s; in data set [4] (oral 30 mg/kg, 4 hr), 39.4 ± 1.4 s. For the same compound, the “aPTT” value in data set [4] (oral 30 mg/kg, 6 hr) was 39.4 ± 1.5 s; in data set [4] (oral 30 mg/kg, 24 hr), 34.0 ± 3.3 s. For the same compound, the “aPTT (ratio)” value in data set [4] (setting [6]) stood at 1.00 ± 0.00 ratio; in data set [4] (oral 10 mg/kg, 0.5 hr) it was 1.13 ± 0.03 ratio; in data set [4] (oral 10 mg/kg, 1 hr), 1.29 ± 0.04 ratio; in data set [4] (oral 10 mg/kg, 2 hr), 1.53 ± 0.07 ratio; in data set [4] (oral 10 mg/kg, 4 hr), 1.62 ± 0.00 ratio; in data set [4] (oral 10 mg/kg, 6 hr) it was 1.57 ± 0.06 ratio. Moreover, the “aPTT (ratio)” value in data set [4] (oral 10 mg/kg, 24 hr) is given as 1.10 ± 0.06 ratio; in data set [4] (setting [7]), 1.00 ± 0.00 ratio; in data set [4] (oral 30 mg/kg, 0.5 hr) it was 1.15 ± 0.10 ratio; in data set [4] (oral 30 mg/kg, 1 hr) it was 1.37 ± 0.03 ratio; in data set [4] (oral 30 mg/kg, 2 hr) it was 1.55 ± 0.07 ratio; in data set [4] (oral 30 mg/kg, 4 hr), 1.65 ± 0.12 ratio. Also, the “aPTT (ratio)” value in data set [4] (oral 30 mg/kg, 6 hr) was 1.65 ± 0.12 ratio; in data set [4] (oral 30 mg/kg, 24 hr), 1.42 ± 0.05 ratio. The “Metabolite formed” value in data set [1] (setting [5]) is listed as “converted to the compound of Reference Example 2-6”. Moreover, the “Residual rate (%) Human plasma” value in data set [2] is on record as under 1%. The “Residual rate (%) Human liver S9” value in data set [3] came out at 71%.

Turning to `CO[C@H]1CC[C@H]([C@@H]2CCN(C(=O)[C@H]3CC[C@H]([C@H](N)CF)CC3)[C@@H]2C(=O)Nc2ccc3c(c2)cc2n3C(C)(C)OC2=O)CC1.Cl` [Example 10, (3S)-1-({trans-4-[(1S)-1-amino-2-fluoroethyl]cyclohexyl}carbonyl)-N-(3,3-dimethyl-1-oxo-1H-[1,3]oxazolo[3,4-a]indol-7-yl)-3-(trans-4-methoxycyclohexyl)-L-prolinamide hydrochloride], in data set [1] (setting [5]), the “Metabolite formed” value is listed as “converted to the compound of Example 24”. Also, the “Residual rate (%) Human plasma” value in data set [2] turned out to be 6.7%. In data set [3], the “Residual rate (%) Human liver S9” value is 98%.

In the case of `CO[C@H]1CC[C@H]([C@@H]2CCN(C(=O)[C@H]3CC[C@H]([C@H](N)CF)CC3)[C@@H]2C(=O)Nc2ccc3c(c2)cc2n3C(CF)(CF)OC2=O)CC1` [Example 13, (3S)-1-({trans-4-[(1S)-1-amino-2-fluoroethyl]cyclohexyl}carbonyl)-N-[3,3-bis(fluoromethyl)-1-oxo-1H-[1,3]oxazolo[3,4-a]indol-7-yl]-3-(trans-4-methoxycyclohexyl)-L-prolinamide], the “Metabolite formed” value in data set [1] (human, 20 min, 1 μmol/L) is recorded as “converted to the compound of Example 24”. In addition, in data set [2], the “Residual rate (%) Human plasma” value was 21%. The “Residual rate (%) Human liver S9” value in data set [3] is given as 69%.

`CO[C@H]1CC[C@H]([C@@H]2CCN(C(=O)[C@H]3CC[C@H]([C@H](N)CF)CC3)[C@@H]2C(=O)Nc2ccc3c(c2)cc2n3C3(CCC3)OC2=O)CC1` [Example 14, (3S)-1-({trans-4-[(1S)-1-amino-2-fluoroethyl]cyclohexyl}carbonyl)-3-(trans-4-methoxycyclohexyl)-N-(1′-oxo-1′H-spiro[cyclobutane-1,3′-[1,3]oxazolo[3,4-a]indol]-7′-yl)-L-prolinamide]: in data set [1] (human, 20 min, 1 μmol/L), the “Metabolite formed” value is listed as “converted to the compound of Example 24”. Besides, in data set [2], the “Residual rate (%) Human plasma” value is under 1%. Also, the “Residual rate (%) Human liver S9” value in data set [3] stood at 47%.

Take `CC1(C)OC(=O)c2cc3cc(NC(=O)[C@@H]4[C@H](N5CCCCC5)CCN4C(=O)[C@H]4CC[C@H]([C@H](N)CF)CC4)ccc3n21` [Example 15, (2S,3R)-1-({trans-4-[(1S)-1-Amino-2-fluoroethyl]cyclohexyl}carbonyl)-N-(3,3-dimethyl-1-oxo-1H-[1,3]oxazolo[3,4-a]indol-7-yl)-3-(piperidin-1-yl)pyrrolidine-2-carboxamide 2-trifluoroacetate]: the “Metabolite formed” value in data set [1] (human, 20 min, 1 μmol/L) was “Example 25”. In addition, the “Residual rate (%) Human plasma” value in data set [2] is 14%. Moreover, in data set [3], the “Residual rate (%) Human liver S9” value was found to be 82%.

`CC1(C)OC(=O)c2cc3cc(NC(=O)[C@@H]4[C@H](C5CCCCC5)CCN4C(=O)[C@H]4CC[C@H](CN)CC4)ccc3n21.Cl` [Example 17, (3S)-1-{[trans-4-(aminomethyl)cyclohexyl]carbonyl}-3-cyclohexyl-N-(3,3-dimethyl-1-oxo-1H-[1,3]oxazolo[3,4-a]indol-7-yl)-L-prolinamide]: in data set [1] (human, 20 min, 1 μmol/L), the “Metabolite formed” value is listed as “converted to the compound of Example 23”. The “Residual rate (%) Human plasma” value in data set [2] came to 50%. Moreover, the “Residual rate (%) Human liver S9” value in data set [3] is listed as over 99%.

As to `Cl.NC[C@H]1CC[C@H](C(=O)N2CC[C@@H](C3CCCCC3)[C@H]2C(=O)Nc2ccc3c(c2)cc2n3C(CF)(CF)OC2=O)CC1` [Example 18], the “Metabolite formed” value in data set [1] (human, 20 min, 1 μmol/L) is given as “converted to the compound of Example 23”. The “Residual rate (%) Human plasma” value in data set [2] is recorded as 15%. Moreover, the “Residual rate (%) Human liver S9” value in data set [3] worked out at 78%.

As to `CC1(C)OC(=O)c2cc3cc(NC(=O)[C@@H]4[C@H](c5ccccc5)CCN4C(=O)[C@H]4CC[C@H]([C@H](N)CF)CC4)ccc3n21.Cl` [Example 19, (3S)-1-({trans-4-[(1S)-1-amino-2-fluoroethyl]cyclohexyl}carbonyl)-N-(3,3-dimethyl-1-oxo-1H-[1,3]oxazolo[3,4-a]indol-7-yl)-3-phenyl-L-prolinamide], the “Metabolite formed” value in data set [1] (setting [5]) is “Reference Example 19-1”. For the same compound, the “Residual rate (%) Human plasma” value in data set [2] turned out to be 15%. In addition, the “Residual rate (%) Human liver S9” value in data set [3] is on record as 93%.

On to `CC1(C)OC(=O)c2cc3cc(NC(=O)[C@@H]4[C@@H](c5ccccc5)CCN4C(=O)[C@H]4CC[C@H]([C@H](N)CF)CC4)ccc3n21.Cl` [Example 20, (3R)-1-({trans-4-[(1S)-1-amino-2-fluoroethyl]cyclohexyl}carbonyl)-N-(3,3-dimethyl-1-oxo-1H-[1,3]oxazolo[3,4-a]indol-7-yl)-3-phenyl-L-prolinamide], for which the “Metabolite formed” value in data set [1] (setting [5]) is “Reference Example 20-5”. The “Residual rate (%) Human plasma” value in data set [2] was 11%. The “Residual rate (%) Human liver S9” value in data set [3] came to 93%.
